Values after ≈ are worked out from the molar mass of the structure shown. Where two headings read alike, the source gives them in different places.
Key:
[1] = cytotoxicity by neutral red dye uptake assay; type: cell-based; details: African green monkey
Description: (§1) The cytotoxic effects of picolinic acid and fusaric acid were examined on Vero cells using neutral red dye uptake assay. Confluent Vero cells were cultured in a medium containing various doses of picolinic acid for two days. The testing concentrations were 0, 10, 100, 250, 500 and 1000 μg/ml for picolinic acid and 0, 1, 10, 50, 100 and 500 μg/ml for fusaric acid. Culture medium was removed from confluent Vero cells in a 96-well plate by pump. The cells were then washed once with 200 μl of PBS. 200 μl culture medium containing varying concentrations of either picolinic acid or fusaric acid was added to each well. The cells were then incubated with […] at 37° C. for two days. At the end of incubation, the medium was removed and the cells washed with PBS. 200 μl of 0.01% neutral red in PBS was subsequently added to each well and incubated at 37° C. for 30 minutes The dye was then removed and the cells washed twice with 200 μl PBS per well. The dye was extracted by addition of 200 μl of 50% ethanol/1% glacial acetic acid in PBS to each well and incubated at room temperature for 15 minutes with gentle shaking at 120-150 rpm. The absorbance at 550 nm was read on an enzyme-linked immunosorbent assay (ELISA) reader. The toxicity profiles of picolinic acid and fusaric acid on Vero cells analyzed from optical absorbance readings are shown in Table 2.

Vero cells = assay: cytotoxicity by neutral red dye uptake assay; type: cell-based
Description: as §1

HSV-1 = assay: plaque reduction assay, HSV-1 in Vero cells; type: cell-based; details: for cell death observed under microscope: HSV-1 infected Vero cells
Description: (§2) Herpes simplex virus standard strains G (HSV-2) and F (HSV-1) were used in each Example. Virus input for a 6-well plate was 200 pfu/well. HSV susceptible cell line, Vero cells, were used in the virus yield reduction assay. The culture medium for Vero cells is 5% Minimum Essential Medium GIBCO/BRL (MEM) supplemented with 5% fetal bovine serum (200 U/ml penicillin and 200 μg/ml streptomycin).
(§3) To examine the efficacy of fusaric acid on HSV-1 and HSV-2, the susceptible cells were infected with either HSV-1 or HSV-2, then incubated with fusaric acid at concentrations of 0, 1, 10, 30, 60, and 100 μg/ml. The antiviral effect was then determined by plaque reduction assay.
(§4) Confluent cells were washed with PBS and infected with either HSV-1 or HSV-2 (200 pfu/well) for 1 hour at 37° C. The cells were tilled every 20 minutes. After viral inoculum was removed, infected cells were washed with PBS and overlaid with 0.5% methylcellulose in culture medium (equal volume of 1% methylcellulose mixed with 2 times culture medium) containing different doses of testing compounds. The cells were incubated at 37° C. for 2 days for HSV-2 infection and 3 days for HSV-1.
(§5) After plaque size was adequate, the cells were fixed with 20% formalin for 20 minutes and stained with 0.5% crystal violet for 20 minutes. The dye was removed by washing with tap water and left to dry in a fume hood. The plaques were then counted. The experiment was repeated.
(§6) Mean plaque counts in test wells were compared with mean plaque counts in wells not containing the compound (control wells). The antiviral effects of fusaric acid on HSV-1 and HSV-2 are summarized in Table 1 and the antiviral effect of fusaric acid on HSV as determined by plaque reduction assay is shown in FIG. 1.
(§7) EC90-100 (effective concentration giving 90-100% plaque reduction) was approximately 30 μg/ml for both HSV-1 and HSV-2. Control was calculated as the mean plaque count in the drug treated wells divided by the mean plaque count in the control wells. The concentrations giving a 50% reduction in the plaque count of the inoculum (EC50) was then calculated using computer software.
(§8) To examine the efficacy of the combination of fusaric acid and acyclovir on HSV-1 and HSV-2, the plaque reduction assay technique described in Example 1 was employed. The susceptible cells were infected with HSV-1 then incubated with a combination of fusaric acid at concentrations of 0, 1, 10, 30 and 60 μg/ml and […] acyclovir. Similarly, other susceptible cells were infected with HSV-2 then incubated with a combination of […] at concentrations of 0, 1, 10, 30, and 60 μg/ml and 6.1 μM acyclovir. A control was used in each instance, which comprised neither picolinic acid nor acyclovir.

HSV-2 = assay: plaque reduction assay, HSV-2 in Vero cells; type: cell-based; details: for cell death observed under microscope: HSV-2 infected Vero cells
Description: as §2, §3, §4, §5, §6, §7, §8

herpes labialis = details: cited from earlier work

With `O=C(O)c1ccccn1` [Picolinic acid, reference compound] the CC50 at 2 days [1] was roughly 800 µg/mL (≈ 6.5 mM), the “Toxicity (% of control)” value (Vero cells; African green monkey, 2 days, 10 μg/ml) was 105 % of control and the “Toxicity (% of control)” value (Vero cells; African green monkey, 2 days, 100 μg/ml) was 95 % of control. For the same compound, the “Toxicity (% of control)” value (Vero cells; African green monkey, 2 days, 250 μg/ml) was 70 % of control, the “Toxicity (% of control)” value (Vero cells; African green monkey, 2 days, 500 μg/ml) was 57 % of control and the “Toxicity (% of control)” value (Vero cells; African green monkey, 2 days, 1000 μg/ml) was 45 % of control.
In the case of `Nc1nc2c(ncn2COCCO)c(=O)[nH]1` [Acyclovir, 2-amino-1,9-dihydro-9-[(2-hydroxyethoxy)metyl]-6H-purin-6-one], the “HSV-1 (% of control)” value (HSV-1; acyclovir 1.75 μM, fusaric acid 0 μg/ml) is listed as 62.9 % of control, the “HSV-2 (% of control)” value (HSV-2; acyclovir 6.1 μM, fusaric acid 0 μg/ml) is listed as 42.9 % of control and the “efficacy against herpes labialis and herpes genitalis (in words)” value (herpes labialis; topical formulation) is listed as “not effective”.
For `Nc1nc2c(ncn2CCC(CO)CO)c(=O)[nH]1` [denavir], the “reduction of the median duration of the illness” value (herpes labialis; herpes labialis, typically lasting about 6 to 7 days) is given as 6 h.
For `CCCCc1ccc(C(=O)O)nc1` [Fusaric acid], the “effect on HSV-1 (in words)” value (HSV-1; 10 μg/ml fusaric acid alone) was “no effect”, the EC90 (HSV-1; Human alphaherpesvirus 1, Vero, read-out: EC90-100 (effective concentration giving 90-100% plaque reduction)) was roughly 30 µg/mL and the “HSV-1 plaque count (% of control)” value (HSV-1; fusaric acid 1 μg/ml) was 101 % of control. The “HSV-1 plaque count (% of control)” value (HSV-1; fusaric acid 10 μg/ml) was 105 % of control, the “HSV-1 plaque count (% of control)” value (HSV-1; fusaric acid 30 μg/ml) was 0 % of control and the “HSV-1 plaque count (% of control)” value (HSV-1; fusaric acid 60 μg/ml) was 0 % of control. For the same compound, the “cell death observed under microscope” value (HSV-1; fusaric acid 60 μg/ml) was “+ (˜20% cell death observed under microscope)”, the “HSV-1 plaque count (% of control)” value (HSV-1; fusaric acid 100 μg/ml) was 0 % of control and the “cell death observed under microscope” value (HSV-1; fusaric acid 100 μg/ml) was “++ (˜50% cell death observed under microscope)”. For the same compound, the “effect on HSV-2 (in words)” value (HSV-2; 10 μg/ml fusaric acid alone) was “no effect”, the EC90 (HSV-2; Human alphaherpesvirus 2, Vero, read-out: EC90-100 (effective concentration giving 90-100% plaque reduction)) was roughly 30 µg/mL and the “HSV-2 plaque count (% of control)” value (HSV-2; fusaric acid 1 μg/ml) was 103 % of control. The “HSV-2 plaque count (% of control)” value (HSV-2; fusaric acid 10 μg/ml) was 101 % of control, the “HSV-2 plaque count (% of control)” value (HSV-2; fusaric acid 30 μg/ml) was 0 % of control and the “HSV-2 plaque count (% of control)” value (HSV-2; fusaric acid 60 μg/ml) was 0 % of control. For the same compound, the “cell death observed under microscope” value (HSV-2; fusaric acid 60 μg/ml) was “+ (˜20% cell death observed under microscope)”, the “HSV-2 plaque count (% of control)” value (HSV-2; fusaric acid 100 μg/ml) was 0 % of control and the “cell death observed under microscope” value (HSV-2; fusaric acid 100 μg/ml) was “++ (˜50% cell death observed under microscope)”. For the same compound, the CC50 at 2 days ([1]; Vero cells, read-out: cytotoxic concentration giving 50% of cell death (CC50)) was roughly 100 µg/mL (≈ 0.558 mM), the “Toxicity (% of control)” value (Vero cells; 1 μg/ml, Vero cells, two days) was 101 % of control and the “Toxicity (% of control)” value (Vero cells; 10 μg/ml, Vero cells, two days) was 76 % of control. For the same compound, the “Toxicity (% of control)” value (Vero cells; 50 μg/ml, Vero cells, two days) was 55 % of control, the “Toxicity (% of control)” value (Vero cells; 100 μg/ml, Vero cells, two days) was 49 % of control and the “Toxicity (% of control)” value (Vero cells; 500 μg/ml, Vero cells, two days) was 16 % of control.
